Source: patent publication US20210093625A1, “COMBINATION THERAPY” (Celleron Therapeutics Limited, priority 2019, published 2021)
pIC50: −log10 of the molar value.

Columns and labels:
HDAC1 = HDAC1 (Homo sapiens, UniProt Q13547); experiment: HDAC1 inhibition; type: biochemical
HDAC2 = HDAC2 (Homo sapiens, UniProt Q92769); experiment: HDAC2 inhibition; type: biochemical
HDAC3 = HDAC3 (Homo sapiens, UniProt O15379); experiment: HDAC3 inhibition; type: biochemical
SW620 cells [1] = experiment: RNA-seq of SW620 cells; type: cell-based, human
Method: We performed RNA-seq on polyA-enriched RNA to assess the effect of CXD101 on the global transcript profile in SW620 cells compared to the vehicle-alone (DMSO) treatment (18). The FASTQ data were aligned to the reference human genome (hg19) with STAR aligner and analysed for differential expression using Bioconductor and DESeq2 R suite (19). The sequencing data were of high quality with on average 92% of the reads able to be mapped to the genome (FIG. 1b).
(§1) SW620 cells were seeded into 6-well plates and left to adhere overnight. Cells were treated with 1 μM, 10 μM of CXD101 for 48 h. CT26 cells were seeded onto 100 mm plates and treated with 2.7 μM and 10 μM CXD101 for 72 h. After treatment cells were harvested and total RNA extracted by means of Promega ReliaPrepμ RNA Cell Miniprep System (Promega, USA). RNA was dissolved in RNAse free water and stored in −80° C. for future analysis. RNA concentration was measured by NanoDrop 2000 (Thermo Fisher Scientific, USA). Samples were qualified for library preparation if […]. Library preparation with poly (A) enrichment was performed by BGI.
(§2) FASTQ files for CXD101 and DMSO treated samples in three biological replicates were trimmed to remove adapters and low-quality bases with TrimGalore v.0.4.3(http://www.bioinformatics.babraham.ac.uk/projects/trim_galore/). The trimmed reads were aligned to the human reference genome (build hg19) with STAR aligner v.2.7 with two mismatches allowed. Differential gene expression analysis was done with the Bioconductor framework (v.3.8) and DESeq2 R package v.1.22, using read count data provided by the aligner. Genes were considered differentially expressed if the adjusted P, calculated using the Benjamini-Hochberg method in order to minimise the false discovery rate, was less than 0.01 (1%) and the change in expression level was greater than ˜2-fold as compared to DMSO control (e.g. |log_2(expression fold change) |>1).

SW620 cells [2] = experiment: qPCR of single genes in SW620 cells; type: cell-based, human; conditions: control gene, FIG. 3
Method: Total RNA purified from DMSO- or CXD101treated cells was transcribed into cDNA according to the manufacturer's instructions (iScript cDNA Synthesis Kit, Bio-Rad, USA). qPCR was conducted according to the manufacturer's protocol (SsoAdvanced Universal SYBR Green Supermix, Bio-Rad Laboratories, USA) on CFX Connect Real-Time System thermocycler (Bio-Rad Laboratories, USA).

colon26 cells = experiment: RNAseq of colon26 cells in vitro; type: cell-based, mouse; conditions: for differentially expressed genes that are immune-related: out of 1142 DEGs
From the text: The RNAseq data was aligned to the reference M.musculus genome (mm10) with STAR aligner and analysed for differential expression. […] Out of 1142 differentially expressed genes identified following CXD101 treatment, 36% (416) were immune-related when analysed using the immunogenicity database (ref), and 34% (388) and 15% (176) when analysed with Import and Immunome databases (ref). We further evaluated transcripts identified in the colon26 RNAseq at the single gene level, focussing on murine genes which are homologues of the immune-related genes identified in human SW620 cells, which included genes in the murine MHC H2 complex. A number of H2 genes including class I and class II genes were induced including H2-D1, DMA, DMB1 and EB1 (FIG. 6).
as §1, §2

colon26 tumours = experiment: RNAseq of colon26 tumours; type: in vivo, Balb/c mice; conditions: log2FC >1 and FDR <1%
Method: To assess gene expression in tumours that were growing in vivo, we evaluated the effect of CXD101 in the syngeneic colon26 colon carcinoma model in tumours grown subcutaneously in Balb/c mice, with CXD101 given orally for two 5-day consecutive periods and performed RNAseq on RNA purified from the tumours. Formalin-fixed paraffin-embedded samples were also prepared to assess by immunohistochemistry (IHC) the tumour micro-environment.
The effect was dose-dependent, as more tumour-inhibition occurred with a higher dose of CXD101 (50 mg/kg compared to 15 mg/kg). […] We performed RNA seq on polyA-enriched RNA prepared from the tumours. In a similar way to the analysis of colon26 in vitro, the RNAseq data was aligned to the reference M.musculus genome (mm10) with STAR aligner and analysed for differential expression.

physchem = conditions: 25 °C, aqueous buffer
[3] = human patients, cited from earlier work
[4] = colon26 cells in vitro, log2 FC >1 and FDR <1%

HDAC2, sequence (Q92769 whole entry, species assumed): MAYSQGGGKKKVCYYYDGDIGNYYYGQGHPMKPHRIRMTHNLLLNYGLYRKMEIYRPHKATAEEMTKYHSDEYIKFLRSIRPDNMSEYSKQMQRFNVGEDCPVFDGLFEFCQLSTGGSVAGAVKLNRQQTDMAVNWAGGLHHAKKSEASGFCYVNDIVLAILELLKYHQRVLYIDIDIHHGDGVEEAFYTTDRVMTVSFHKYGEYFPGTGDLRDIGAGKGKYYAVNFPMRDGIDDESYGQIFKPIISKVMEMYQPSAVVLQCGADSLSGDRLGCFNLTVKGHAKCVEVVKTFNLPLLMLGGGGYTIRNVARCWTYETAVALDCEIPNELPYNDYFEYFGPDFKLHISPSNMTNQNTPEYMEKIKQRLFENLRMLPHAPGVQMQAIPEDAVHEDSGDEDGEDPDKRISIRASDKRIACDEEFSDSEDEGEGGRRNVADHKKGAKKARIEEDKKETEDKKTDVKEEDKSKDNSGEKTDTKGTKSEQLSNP
HDAC3, sequence (O15379 whole entry, species assumed): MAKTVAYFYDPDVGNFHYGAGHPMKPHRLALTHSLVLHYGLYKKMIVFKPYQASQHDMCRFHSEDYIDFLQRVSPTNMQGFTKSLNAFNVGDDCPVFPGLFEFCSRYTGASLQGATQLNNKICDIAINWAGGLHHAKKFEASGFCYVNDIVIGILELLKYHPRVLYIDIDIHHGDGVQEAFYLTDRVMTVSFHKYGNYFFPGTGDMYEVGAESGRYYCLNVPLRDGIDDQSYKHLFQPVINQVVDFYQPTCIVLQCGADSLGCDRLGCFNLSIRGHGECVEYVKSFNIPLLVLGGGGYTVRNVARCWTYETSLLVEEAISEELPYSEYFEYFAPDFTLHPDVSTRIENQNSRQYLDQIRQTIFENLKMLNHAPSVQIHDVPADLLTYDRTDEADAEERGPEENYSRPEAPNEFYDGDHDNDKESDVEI
HDAC3, sequence (Q9Y618 395-489 partner limits assumed, species assumed): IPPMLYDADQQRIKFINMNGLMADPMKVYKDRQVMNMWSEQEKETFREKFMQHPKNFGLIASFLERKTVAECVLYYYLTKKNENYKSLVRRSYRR
HDAC1, sequence (Q13547 whole entry, species assumed): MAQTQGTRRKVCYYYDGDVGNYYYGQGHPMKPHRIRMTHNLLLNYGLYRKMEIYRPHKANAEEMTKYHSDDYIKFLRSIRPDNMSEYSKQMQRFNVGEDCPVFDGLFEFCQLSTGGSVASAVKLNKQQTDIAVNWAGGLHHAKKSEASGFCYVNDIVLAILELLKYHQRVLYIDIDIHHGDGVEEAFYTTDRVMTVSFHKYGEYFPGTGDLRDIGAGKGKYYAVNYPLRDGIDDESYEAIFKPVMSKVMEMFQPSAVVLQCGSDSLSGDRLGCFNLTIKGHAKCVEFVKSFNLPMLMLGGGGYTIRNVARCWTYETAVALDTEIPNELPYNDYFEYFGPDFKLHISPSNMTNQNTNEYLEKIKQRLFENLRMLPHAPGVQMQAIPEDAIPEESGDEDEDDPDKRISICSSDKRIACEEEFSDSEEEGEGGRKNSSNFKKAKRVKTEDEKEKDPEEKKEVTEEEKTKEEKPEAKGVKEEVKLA

## Cc1nn(C)cc1CN1CCC(c2ccc(C(=O)Nc3ccccc3N)cc2)CC1 [CXD101, N-(2-aminophenyl)-4-(1-[(1,3-dimethyl-1H-pyrazol-4-yl)methyl]piperidin-4yl)benzamide]
HDAC1
  pIC50: 7.20
HDAC2
  pIC50: 6.24
HDAC3
  pIC50: 6.26
SW620 cells [1]; SW620
  proportion of DEGs down-regulated: 30%
  proportion of DEGs up-regulated: 70%
SW620 cells [1]; SW620, log2 FC >1 and FDR <1%, vs DMSO
  number of differentially expressed transcripts (DEGs): about 2500
SW620 cells [2]
  expression of REPIN1: no effect
colon26 cells; [4]
  genes down-regulated: 611
  genes up-regulated: 1891
colon26 cells; colon26 cells, log2FC >1 and FDR <1%
  size of DEG set in vitro: 2502
colon26 cells; Immunome database
  differentially expressed genes that are immune-related: 15%
colon26 cells; Import database
  differentially expressed genes that are immune-related: 34%
colon26 cells; immunogenicity database
  differentially expressed genes that are immune-related: 36%
colon26 tumours
  size of DEG set in vivo: 1141
physchem
  solubility: ≥ 500 µg/mL
[3]; for 5 days in a 3-weekly cycle
  MTD: 20 mg B.D.
[3]
  safety profile: favourable safety profile
